The values that follow are results of earlier work, collected in US10258574B2, “Method of preparing itraconazole preparation” (CHANGZHOU PHARMACEUTICAL FACTORY CO., LTD., priority 2015, dated 2019).

The conditions of the data set: rat; clinical relevance yet unclear.

As to 2-hydroxypropyl-β-cyclodextrin, the carcinogenicity finding entry is “cause pancreatic cancer”.
